Earlier results as cited in EP4755392A1, “ORAL PREPARATION FOR IMPROVING MINIMAL ERYTHEMA DOSE” (Mitsubishi Corporation Life Sciences Limited, priority 2023, dated 2025).

Conditions: after 6 months, ingesting 250 mg or more

N[C@@H](CCC(=O)N[C@@H](CS)C(=O)NCC(=O)O)C(=O)O [glutathione]
blood glutathione amount increased: 17%
